# Source: US9695155B2, “Herbicidal substituted pyrimidinyloxy benzene compounds” (E. I. DU PONT DE NEMOURS AND COMPANY, priority 2013, dated 2017)
# How the values were obtained:
# barnyardgrass [1] = assay: Test A preemergence; assay type: in vivo, Echinochloa crus-galli; conditions: for Plant response rating, Barnyardgrass: 125 g ai/ha; for Barnyardgrass plant response rating: 500 g ai/ha
# Outline: (§1)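 Greenhouse pot test, loam/sand soil. Formulation: non-phytotoxic solvent mix plus surfactant. Pre: directed spray onto soil after sowing. Post: plants at 1–2 leaf, 2–10 cm. Rated visually vs untreated controls at ~10 d, 0 (no effect) to 100 (complete control).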
# pigweed = assay: Test A postemergence; assay type: in vivo, Amaranthus retroflexus; conditions: 0 to 100 scale where 0 is no effect and 100 is complete control
# Outline: as §1
# rice = assay: Test B flooded paddy test; assay type: in vivo, Oryza sativa; conditions: Flood, 250 g ai/ha; 0 to 100 scale where 0 is no effect and 100 is complete control
# Outline: (§2)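 Seedlings are raised to two leaves, flooded to a depth of 3 cm and dosed by adding the compound to the floodwater. Water level is kept constant, and plants are scored visually versus controls 13–15 days later (0 = no effect, 100 = complete control).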
# sedge, umbrella = assay: Test B flooded paddy test; assay type: in vivo, Cyperus difformis; conditions: Flood, 250 g ai/ha; 0 to 100 scale where 0 is no effect and 100 is complete control
# Outline: as §2
# blackgrass = assay: Test C postemergence; assay type: in vivo, Alopecurus myosuroides
# Outline: (§3)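 Seeds are planted in blended loam soil and sand and treated preemergence, while seedlings in a peat moss/vermiculite medium receive postemergence sprays at 2 to 18 cm height. All plants stay in the greenhouse for 13 to 15 days before visual comparison with controls on a 0–100 scale.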
# Italian ryegrass = assay: Test C postemergence; assay type: in vivo, Lolium multiflorum; conditions: for Plant response rating, Ryegrass, Italian: scale 0 to 100 (0 no effect, 100 complete control)
# Outline: as §3
# galium = assay: Test C postemergence; assay type: in vivo, Galium aparine
# Outline: as §3
# large (Lg) crabgrass = assay: Test C postemergence; assay type: in vivo, Digitaria sanguinalis
# Outline: as §3
# lambsquarters = assay: Test C postemergence; assay type: in vivo, Chenopodium album; conditions: for Plant response rating, Lambsquarters: scale 0 to 100 (0 no effect, 100 complete control)
# Outline: as §3
# yellow nutsedge = assay: Test C postemergence; assay type: in vivo, Cyperus esculentus; conditions: for Plant response rating, Nutsedge, Yellow: scale 0 to 100 (0 no effect, 100 complete control)
# Outline: as §3
# ragweed = assay: Test C postemergence; assay type: in vivo, Ambrosia elatior; conditions: for Plant response rating, Ragweed: scale 0 to 100 (0 no effect, 100 complete control)
# Outline: as §3
# soybean = assay: Test C postemergence; assay type: in vivo, Glycine max; conditions: for Plant response rating, Soybean: scale 0 to 100 (0 no effect, 100 complete control)
# Outline: as §3
# barnyardgrass [2] = assay: Test C postemergence; assay type: in vivo, Echinochloa crus-galli
# Outline: as §3
# [3] = 0 to 100 scale where 0 is no effect and 100 is complete control
# [4] = 16 g ai/ha, postemergence, visual rating, scale 0 to 100 (0 no effect, 100 complete control), 13 to 15 days
# [5] = Postemergence, 31 g ai/ha, scale 0 to 100 (0 no effect, 100 complete control), 13 to 15 days
# [6] = Postemergence, 62 g ai/ha, scale 0 to 100 (0 no effect, 100 complete control)
# [7] = Postemergence, 31 g ai/ha, 13 to 15 days
# [8] = 16 g ai/ha, postemergence, 0 is no effect, 100 is complete control
# [9] = 125 g ai/ha, postemergence, visual rating, scale 0 to 100 (0 no effect, 100 complete control)
# [10] = 125 g ai/ha, postemergence, visual rating
structure (smiles),measurement,setting,value
CC(C)c1cnn(-c2c(C#N)cccc2Oc2ncc(Cl)cn2)c1 [Compound 85],"Plant response rating, Barnyardgrass",barnyardgrass [1]; [3],20
same,Barnyardgrass plant response rating,"barnyardgrass [1]; 0 to 100 scale, 0 no effect, 100 complete control, approx. 10 days",100
same,"Plant response rating, Pigweed",pigweed; 125 g ai/ha,80
same,"Plant response rating, Pigweed",pigweed; 500 g ai/ha,100
same,"Plant response rating, Rice",rice,10
same,"Plant response rating, Sedge, Umbrella","sedge, umbrella",30
same,Blackgrass plant response rating,blackgrass; [4],0
same,"Plant response rating (0 to 100), Blackgrass","blackgrass; 125 g ai/ha, postemergence",10
same,"Plant response rating, Blackgrass",blackgrass; [5],0
same,"Plant response rating, Blackgrass",blackgrass; [6],5
same,"Plant response rating (0 to 100), Ryegrass, Italian","Italian ryegrass; 125 g ai/ha, postemergence",5
same,"Plant response rating, Ryegrass, Italian",Italian ryegrass; [7],0
same,"Plant response rating, Ryegrass, Italian","Italian ryegrass; Postemergence, 62 g ai/ha",0
same,Galium plant response rating,galium; [4],40
same,"Plant response rating (0 to 100), Galium","galium; 125 g ai/ha, postemergence",75
same,"Plant response rating, Galium",galium; [5],50
same,"Plant response rating, Galium",galium; [6],50
same,"Crabgrass, Large plant response rating",large (Lg) crabgrass; [4],10
same,"Plant response rating (0 to 100), Crabgrass, Large","large (Lg) crabgrass; 125 g ai/ha, postemergence",10
same,"Plant response rating, Crabgrass, Large",large (Lg) crabgrass; [5],10
same,"Plant response rating, Crabgrass, Large",large (Lg) crabgrass; [6],5
same,"Plant response rating (0 to 100), Lambsquarters","lambsquarters; 125 g ai/ha, postemergence",70
same,"Plant response rating, Lambsquarters",lambsquarters; [7],55
same,"Plant response rating, Lambsquarters","lambsquarters; Postemergence, 62 g ai/ha",75
same,"Plant response rating (0 to 100), Nutsedge, Yellow","yellow nutsedge; 125 g ai/ha, postemergence",10
same,"Plant response rating, Nutsedge, Yellow",yellow nutsedge; [7],5
same,"Plant response rating, Nutsedge, Yellow","yellow nutsedge; Postemergence, 62 g ai/ha",5
same,"Plant response rating (0 to 100), Ragweed","ragweed; 125 g ai/ha, postemergence",65
same,"Plant response rating, Ragweed",ragweed; [7],20
same,"Plant response rating, Ragweed","ragweed; Postemergence, 62 g ai/ha",20
same,"Plant response rating (0 to 100), Soybean","soybean; 125 g ai/ha, postemergence",90
same,"Plant response rating, Soybean",soybean; [7],75
same,"Plant response rating, Soybean","soybean; Postemergence, 62 g ai/ha",65
same,Barnyardgrass plant response rating,barnyardgrass [2]; [4],10
same,"Plant response rating (0 to 100), Barnyardgrass","barnyardgrass [2]; 125 g ai/ha, postemergence",5
same,"Plant response rating, Barnyardgrass",barnyardgrass [2]; [5],5
same,"Plant response rating, Barnyardgrass",barnyardgrass [2]; [6],5
Clc1cnc(Oc2cccc(Br)c2-n2cc(I)nn2)nc1 [Compound 117],"Plant response rating, Barnyardgrass",barnyardgrass [1]; [3],30
same,Barnyardgrass plant response rating,barnyardgrass [1]; [3],90
same,"Plant response rating, Pigweed",pigweed; 500 g ai/ha,100
same,"Plant response rating, Rice",rice,0
same,"Plant response rating, Sedge, Umbrella","sedge, umbrella",20
same,"Plant response rating (0 to 100), Blackgrass",blackgrass; [8],5
same,"Plant response rating, Blackgrass",blackgrass; [9],10
same,"Plant response rating, Blackgrass",blackgrass; [5],10
same,"Plant response rating, Blackgrass",blackgrass; [6],5
same,"Plant response rating (0 to 100), Ryegrass, Italian",Italian ryegrass; [8],0
same,"Plant response rating, Ryegrass, Italian",Italian ryegrass; [10],5
same,"Plant response rating, Ryegrass, Italian","Italian ryegrass; Postemergence, 62 g ai/ha",0
same,"Plant response rating (0 to 100), Galium",galium; [8],80
same,"Plant response rating, Galium",galium; [9],80
same,"Plant response rating, Galium",galium; [6],70
same,"Plant response rating (0 to 100), Crabgrass, Large",large (Lg) crabgrass; [8],10
same,"Plant response rating, Crabgrass, Large",large (Lg) crabgrass; [9],20
same,"Plant response rating, Crabgrass, Large",large (Lg) crabgrass; [6],20
same,"Plant response rating (0 to 100), Lambsquarters",lambsquarters; [8],45
same,"Plant response rating, Lambsquarters",lambsquarters; [10],75
same,"Plant response rating, Lambsquarters","lambsquarters; Postemergence, 62 g ai/ha",50
same,"Plant response rating (0 to 100), Nutsedge, Yellow",yellow nutsedge; [8],5
same,"Plant response rating, Nutsedge, Yellow",yellow nutsedge; [10],5
same,"Plant response rating, Nutsedge, Yellow","yellow nutsedge; Postemergence, 62 g ai/ha",5
same,"Plant response rating (0 to 100), Ragweed",ragweed; [8],25
same,"Plant response rating, Ragweed",ragweed; [10],60
same,"Plant response rating, Ragweed","ragweed; Postemergence, 62 g ai/ha",35
same,"Plant response rating (0 to 100), Soybean",soybean; [8],35
same,"Plant response rating, Soybean",soybean; [10],50
same,"Plant response rating, Soybean","soybean; Postemergence, 62 g ai/ha",50
same,"Plant response rating (0 to 100), Barnyardgrass",barnyardgrass [2]; [8],5
same,"Plant response rating, Barnyardgrass",barnyardgrass [2]; [9],10
same,"Plant response rating, Barnyardgrass",barnyardgrass [2]; [5],5
same,"Plant response rating, Barnyardgrass",barnyardgrass [2]; [6],5
